Laboratory results as given in patent US9358250B2, “Methods of using SCD1 antagonists” (Genentech, Inc., priority 2011, dated 2016).
pIC50: −log10 of the molar value.

Key:
[1] = tested on: HCT-15; experiment: Cell viability, CellTiter-Glo; format: cell-based, human; conditions: for pIC50: Homo sapiens, HCT-15, 72 h; for cell proliferation, oleate / palmitate supplement: HCT15 cells
Description: (§1) For SCD1 small molecule inhibitor experiment, cells were treated with indicated concentration of A37062 (Abbott compound 4c) or G02447171.1 (Daichii compound 24) in DMSO or DMSO alone for 48-72 hr. Cell viability was assessed with CellTiter-Glo at 72 hr post treatment (Promega). Activation of caspase 3 and caspase 7 was measured with the Caspase-Glo 3/7 assay kit at 48 hr after treatment (Promega). Values are presented as mean+/−SD of quadruplets. Data are representative of at least three independent experiments.
(§2) To investigate the effect of SCD1 small molecule antagonists on cancer cell lines were treated with serially diluted A37062 for 72 hr, and […] cell viability was measured by CellTiter-Glo (Promega) as described above.
(§3) To investigate the effect of additional SCD1 small molecule antagonists, HT29 and HCT15 were treated with serially diluted small molecule inhibitors RG1-14 and G02447171 (G7171) for 72 hr, and cell viability was measured by CellTiter-Glo (Promega). The specificity and selectivity of the SCD1 small molecule inhibitors was also evaluated.

[2] = tested on: HT29; experiment: Cell viability, CellTiter-Glo; format: cell-based, human; conditions: for pIC50: Homo sapiens, HT-29, 72 h; for cell proliferation, oleate / palmitate supplement: HT29 cells
Description: as §1, §2, §3

O=c1cc(N2CCN(Cc3cc(I)ccc3O)CC2)nc[nH]1 [RG2]
pIC50 ([1]; Experiment 1 HCT15, 72 hr): 7.24 | pIC50 ([1]; Experiment 2 HCT15, 72 hr): 6.92 | pIC50 ([2]; Experiment 1 HT29, 72 hr): 6.17 | pIC50 ([2]; Experiment 2 HT29, 72 hr): 6.40

O=c1cc(N2CCN(Cc3cc(Cl)cc(Br)c3O)CC2)nc[nH]1 [RG3]
cell proliferation, oleate / palmitate supplement [1]: suppress cell proliferation in a fatty acid desaturation-dependent manner | pIC50 ([1]; Experiment 1 HCT15, 72 hr): 8.56 | pIC50 ([1]; Experiment 2 HCT15, 72 hr): 8.09 | cell proliferation, oleate / palmitate supplement [2]: suppress cell proliferation in a fatty acid desaturation-dependent manner | pIC50 ([2]; Experiment 1 HT29, 72 hr): 7.37 | pIC50 ([2]; Experiment 2 HT29, 72 hr): 7.84

O=c1cc(N2CCN(Cc3cc(F)cc(F)c3O)CC2)nc[nH]1 [RG4]
pIC50 ([1]; Experiment 1 HCT15, 72 hr): 6.54 | pIC50 ([1]; Experiment 2 HCT15, 72 hr): 6.61 | pIC50 ([2]; Experiment 1 HT29, 72 hr): 6.26 | pIC50 ([2]; Experiment 2 HT29, 72 hr): 6.46

O=c1cc(N2CCN(Cc3cccc(Cl)c3O)CC2)nc[nH]1 [RG5]
pIC50 ([1]; Experiment 1 HCT15, 72 hr): 6.82 | pIC50 ([1]; Experiment 2 HCT15, 72 hr): 6.42 | pIC50 ([2]; Experiment 1 HT29, 72 hr): 6.56 | pIC50 ([2]; Experiment 2 HT29, 72 hr): 6.48

O=c1cc(N2CCN(Cc3cc(Cl)ccc3O)CC2)nc[nH]1 [RG6]
pIC50 ([1]; Experiment 1 HCT15, 72 hr): 7.06 | pIC50 ([1]; Experiment 2 HCT15, 72 hr): 6.77 | pIC50 ([2]; Experiment 1 HT29, 72 hr): 6.48 | pIC50 ([2]; Experiment 2 HT29, 72 hr): 6.55

O=c1cc(N2CCN(Cc3cc(Cl)ccc3[N+](=O)[O-])CC2)nc[nH]1 [RG7]
pIC50 ([1]; Experiment 1 HCT15, 72 hr): 6.75 | pIC50 ([1]; Experiment 2 HCT15, 72 hr): 6.31 | pIC50 ([2]; Experiment 1 HT29, 72 hr): 7.05 | pIC50 ([2]; Experiment 2 HT29, 72 hr): 6.57

O=c1cc(N2CCN(Cc3cc(Br)cc(Br)c3O)CC2)nc[nH]1 [RG8]
cell proliferation, oleate / palmitate supplement [1]: suppress cell proliferation in a fatty acid desaturation-dependent manner | pIC50 ([1]; Experiment 1 HCT15, 72 hr): 9.11 | pIC50 ([1]; Experiment 2 HCT15, 72 hr): 8.38 | cell proliferation, oleate / palmitate supplement [2]: suppress cell proliferation in a fatty acid desaturation-dependent manner | pIC50 ([2]; Experiment 1 HT29, 72 hr): 7.73 | pIC50 ([2]; Experiment 2 HT29, 72 hr): 8.09

Cc1cccc(CN2CCN(c3cc(=O)[nH]cn3)CC2)c1O [RG11]
pIC50 ([1]; Experiment 1 HCT15, 72 hr): 6.83 | pIC50 ([1]; Experiment 2 HCT15, 72 hr): 6.38 | pIC50 ([2]; Experiment 1 HT29, 72 hr): 6.61 | pIC50 ([2]; Experiment 2 HT29, 72 hr): 6.58

Cc1cc(Cl)cc(CN2CCN(c3cc(=O)[nH]cn3)CC2)c1O [RG12]
pIC50 ([1]; Experiment 1 HCT15, 72 hr): 9.00 | pIC50 ([1]; Experiment 2 HCT15, 72 hr): 8.36 | pIC50 ([2]; Experiment 1 HT29, 72 hr): 6.42 | pIC50 ([2]; Experiment 2 HT29, 72 hr): 7.08

Cc1c(Br)cccc1CN1CCN(c2cc(=O)[nH]cn2)CC1 [RG13]
pIC50 ([1]; Experiment 1 HCT15, 72 hr): 6.54 | pIC50 ([1]; Experiment 2 HCT15, 72 hr): 6.56 | pIC50 ([2]; Experiment 1 HT29, 72 hr): 6.89 | pIC50 ([2]; Experiment 2 HT29, 72 hr): 6.72

O=c1cc(N2CCN(Cc3cc(OC(F)(F)F)ccc3O)CC2)nc[nH]1 [RG14]
pIC50 ([1]; Experiment 1 HCT15, 72 hr): 7.61 | pIC50 ([1]; Experiment 2 HCT15, 72 hr): 7.28 | pIC50 ([2]; Experiment 1 HT29, 72 hr): 6.16 | pIC50 ([2]; Experiment 2 HT29, 72 hr): 6.49
